Values quoted from earlier work in PMC8352932, “Targeted activity of the small molecule kinase inhibitor Pz-1 towards RET and TRK kinases” (Scientific Reports, 2021).
pIC50: −log10 of the molar value. Values joined by “and” are separate entries in the source; they are usually repeats but may differ in a detail not shown here. Equal entries are not always repeated.

Columns and labels:
Conditions in all cases: read-out: cell proliferation IC50
KIF5B-RET Ba/F3 cells = system: KIF5B-RET Ba/F3 cells
TEL-TRKA Ba/F3 cells = system: TEL-TRKA Ba/F3 cells
MPRIP-TRKA Ba/F3 cells = system: MPRIP-TRKA Ba/F3 cells; design: method as in PMID 24162815

COc1cc2nccc(Oc3ccc(NC(=O)C4(C(=O)Nc5ccc(F)cc5)CC4)cc3)c2cc1OC [cabozantinib]
pIC50 (KIF5B-RET Ba/F3 cells): 6.47

CN1CCN(c2ccc(C(=O)Nc3n[nH]c4ccc(Cc5cc(F)cc(F)c5)cc34)c(NC3CCOCC3)c2)CC1 [entrectinib]
pIC50 (TEL-TRKA Ba/F3 cells): 8.55

O=C(Nc1cnn2ccc(N3CCC[C@@H]3c3cc(F)ccc3F)nc12)N1CC[C@H](O)C1 [larotrectinib]
pIC50 (MPRIP-TRKA Ba/F3 cells): 8.10

CO[C@]1(C(=O)N[C@@H](C)c2ccc(-n3cc(F)cn3)nc2)CC[C@H](c2nc(C)cc(Nc3cc(C)[nH]n3)n2)CC1 [pralsetinib]
pIC50 (KIF5B-RET Ba/F3 cells): 8.01 and 7.78

COc1ccc(CN2C3CC2CN(c2ccc(-c4cc(OCC(C)(C)O)cn5ncc(C#N)c45)cn2)C3)cn1 [selpercatinib]
pIC50 (KIF5B-RET Ba/F3 cells): 8.10
